Experimental data as given in patent US20080280991A1, “SUBSTITUTED NAPHTHALENES” (AUSPEX PHARMACEUTICALS, INC., priority 2007, published 2008).
Blank lines part the entries; values can stand above or below the compound they belong to.

Columns and labels:
[1] = in vivo; cited from earlier work
[2] = In vitro liver microsomal stability assay; assay type: in vitro ADME; settings: 1 mg per mL liver microsome protein, NADPH-generating system, 5 microgram per mL compound, 37° C., 0-60 min, LC/MS/MS
Protocol: Liver microsomal stability assays are conducted at 1 mg per mL liver microsome protein with an NADPH-generating system in 2% NaHCO3 (2.2 mM NADPH, 25.6 mM glucose 6-phosphate, 6 units per mL glucose 6-phosphate dehydrogenase and 3.3 mM MgCl2). Test compounds are prepared as solutions in 20% acetonitrile-water and added to the assay mixture (final assay concentration 5 microgram per mL) and incubated at 37° C. Final concentration of acetonitrile in the assay should be <1%. Aliquots ([…]) are taken out at times 0, 15, 30, 45, and 60 min, and diluted with ice cold acetonitrile (200 μL) to stop the reactions. Samples are centrifuged at 12,000 RPM for 10 min to precipitate proteins. Supernatants are transferred to microcentrifuge tubes and stored for LC/MS/MS analysis of the degradation half-life of the test compounds. […] For example, the degradation half-life of Example 9 was increased by 20% as compared to non-isotopically enriched agomelatine.

[3] = system: melatonin receptor; settings: relative to agomelatine; cited from earlier work

SMILES: COc1ccc2cccc(CCNC(C)=O)c2c1 [agomelatine, N-[2-(7-Methoxy-naphthalen-1-yl)-ethyl]-acetamide]
terminal elimination half-life [1]: 2.3 h

increase in the degradation half-life as compared to the non-isotopically enriched drug (agomelatine) [2]: 20%
SMILES: [2H]C([2H])([2H])Oc1ccc2cccc(C([2H])([2H])C([2H])([2H])NC(=O)C([2H])([2H])[2H])c2c1 [Example 9, d10-N-[2-(7-Methoxy-naphthalen-1-yl)-ethyl]-acetamide]

SMILES: CC(=O)NCCc1cccc2ccc(O)cc12 [S 21517]
fold less potency for the melatonin receptor than the parent compound (agomelatine) [3]: 100 fold
